Data: US8629166B2, “5-cycloalkyl- or 5-heterocyclyl-nicotinamides” (Hoffmann-La Roche Inc., priority 2011, dated 2014)

Assays:
human CB1 receptor = target: T1, human CB1 receptor (Homo sapiens, UniProt P21554); assay: CB1 receptor affinity ([3H]-CP-55,940 displacement, HEK cell membranes); type: binding; details: displacement of [3H]-CP-55,940 at 10 μM
T1 construct: expressed in transfected cells; host or cells: human embryonic kidney (HEK) cells, Semliki Forest Virus system, membrane preparation
T1 sequence (P21554 whole entry): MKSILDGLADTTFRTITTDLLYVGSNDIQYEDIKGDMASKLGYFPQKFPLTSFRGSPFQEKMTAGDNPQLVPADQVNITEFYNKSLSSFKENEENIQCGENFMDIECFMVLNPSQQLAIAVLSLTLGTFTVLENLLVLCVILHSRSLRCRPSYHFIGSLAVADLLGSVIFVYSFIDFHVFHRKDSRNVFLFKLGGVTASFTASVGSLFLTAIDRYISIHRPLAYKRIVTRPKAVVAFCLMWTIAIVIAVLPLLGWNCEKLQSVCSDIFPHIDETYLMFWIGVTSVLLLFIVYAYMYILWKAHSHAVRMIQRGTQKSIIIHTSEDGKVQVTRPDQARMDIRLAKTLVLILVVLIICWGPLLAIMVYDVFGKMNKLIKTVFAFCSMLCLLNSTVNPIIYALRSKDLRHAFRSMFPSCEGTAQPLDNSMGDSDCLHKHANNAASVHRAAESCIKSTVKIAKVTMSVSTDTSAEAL
Description: (§1) CB1 and CB2 Receptor Affinity
(§2) The affinity of the compounds of the invention for cannabinoid receptors was determined using membrane preparations of human embryonic kidney (HEK) cells in which the human CB1 receptor is transiently transfected using a Semliki Forest Virus system in conjunction with [3H]-CP-55,940 as radioligand. After incubation of freshly prepared cell membrane preparation with the [^3H]-ligand, with or without addition of compounds of the invention, separation of bound and free ligand was performed by filtration over glass fiber filters. Radioactivity on the filter was measured by scintillation counting.
(§3) The ability of the compounds to displace the radioligand [^3H]-CP-55,940 was measured at a concentration of 10 μM and values provided as [% inhibition @ 10 μM] both for the CB1 and CB2 receptor assay, The lower % inhibition is, the lower the likelihood of side effects based on CB1 or CB2 receptor inhibition is.

human CB2 receptor = target: T2, human CB2 receptor (Homo sapiens, UniProt P34972); assay: CB2 receptor affinity ([3H]-CP-55,940 displacement, HEK cell membranes); type: binding; details: displacement of [3H]-CP-55,940 at 10 μM
T2 construct: expressed in transfected cells; host or cells: human embryonic kidney (HEK) cells, Semliki Forest Virus system, membrane preparation
T2 sequence (P34972 whole entry): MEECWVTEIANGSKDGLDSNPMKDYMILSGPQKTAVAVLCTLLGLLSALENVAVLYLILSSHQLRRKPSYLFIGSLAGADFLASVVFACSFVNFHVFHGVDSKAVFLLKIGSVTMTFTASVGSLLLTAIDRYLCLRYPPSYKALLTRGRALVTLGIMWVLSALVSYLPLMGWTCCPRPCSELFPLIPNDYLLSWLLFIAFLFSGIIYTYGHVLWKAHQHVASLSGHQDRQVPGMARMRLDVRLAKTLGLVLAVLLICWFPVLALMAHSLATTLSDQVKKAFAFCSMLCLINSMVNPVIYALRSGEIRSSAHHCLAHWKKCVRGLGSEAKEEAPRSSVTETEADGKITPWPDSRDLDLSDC
Description: as §1
as §2, with “cannabinoid CB2” for “cannabinoid”, “CB2” for “CB1”, “[^3H]-CP-55,940” for “[3H]-CP-55,940”
as §3

ABCA1 protein = assay: Detection of upregulation of ABCA1 protein in cells (ApoA-I binding, high content image analysis); type: cell-based; details: THP-1 macrophage cells, compound at 3 μM, 24 hrs
Description: Detection of Upregulation of ABCA1 Protein in Cells
The ability of compounds of the invention to increase the level of ABCA1 protein is determined in replicate cultures of THP-1 macrophage cells in 96-well microplates. Cells are plated at an initial density of 100,000 cells/well in 100 μl medium and differentiated to adherent macrophages with the addition of PMA (100 nM) for 68 hrs in 10% fetal bovine serum, 3 μl/L of b-mercaptoethanol, RPMI-1640 medium. Then, cells are incubated with RPMI-1640 medium containing 1% FCS, 25 μg/ml acetylated LDL, for 24 hours at 37° C. Following incubation with acetylated LDL, cells are washed twice with 50 μl PBS and incubated with 100 μl of RPMI-1640 medium containing the compound of interest solubilized in DMSO for an additional 24 hrs. The final DMSO concentration in presence of cells is maintained at 0.5%. ApoA-I binding assay using High Content Image Analysis is initiated by replacing with fresh medium, RPMI without Phenol Red, 0.2% BSA containing AlexaFluor®647 labeled ApoA-I for 2 h/37° C./5% CO2. Then, cells are fixed with 4% Formaldehyde in PBS (15 min, RT). Following Nuclei are stained with Hoechst solution (3 μM PBS) and Cytoplasm with Cell Mask Blue (2 μg/ml PBS), 15 min, RT. Finally the stained cells are fixed with a second round of formaldehyde treatment. Fixed stained cells are washed and kept in PBS at 4° C. and can be read immediately until one month after preparation.
The Alexa Fluor 647-labeled Apolipoprotein A-I (20 nM) was prepared as follows: Human recombinant Apolipoprotein A-I (ApoA-I) was exchanged to a buffer of 0.02 M NaHCO3 at pH 8.2 on an NAP desalting column (GE Healthcare) and brought to a concentration to 40 μM (1.13 mg/ml) by adjustment with the same buffer. The ApoA-I was fluorescently labeled by incubation with Alexa Fluor carboxylic acid succimidyl ester (Alexa Fluor 647, Invitrogen A-20006) at a 2:1 molar ratio (Alexa to ApoA-I) for 1 h under shaking at RT. The remaining unconjugated label was removed by buffer exchange to 0.02M NaHCO3 at pH 8.2.
Imaging and data collection were performed on an OPERA confocal microplate imaging reader using a 20× water immersion objective and UV360 or 405 laser to identify the cell nuclei and a 635 laser to identify the fluorescent ApoA-I. Eight fields of view are captured per well. Image capture and analysis was performed with the Acapella software. Background fluorescence detected in control wells without ApoA-I was subtracted.
Using XLfit3 program (ID Business Solutions Ltd. UK), the model 205 for Dose Response One Site is used to calculate the EC50 values. […] Particularly, the compounds of the present invention have EC50 values in a range of 0.1 μM to 3 μm.

| CB1 receptor affinity [% inhibition @ 10 μM] (human CB1 receptor) [% inhibition] | CB2 receptor affinity [% inhibition @ 10 μM] (human CB2 receptor) [% inhibition] | Structure (SMILES) | % increase of ABCA1 at 3 μM (ABCA1 protein) [% @ 3 μM] |
| --- | --- | --- | --- |
| 36 | 6 | O=C(Nc1ccnnc1)c1cnc(OCC(F)(F)F)c(C2CCCCC2)c1 [Example 20, 5-cyclohexyl-N-pyridazin-4-yl-6-(2,2,2-trifluoro-ethoxy)-nicotinamide] | >45 |
| 38 | −4 | O=C(Nc1ccncn1)c1cnc(OCC(F)(F)F)c(C2CCCCC2)c1 [Example 21, 5-cyclohexyl-N-pyrimidin-4-yl-6-(2,2,2-trifluoro-ethoxy)-nicotinamide] | >45 |
| 12 | −11 | O=C(Nc1cncnc1)c1cnc(OCC(F)(F)F)c(C2CCCC2)c1 [Example 22, 5-cyclopentyl-N-pyrimidin-5-yl-6-(2,2,2-trifluoro-ethoxy)-nicotinamide] | >45 |
| 31 | −3 | O=C(Nc1ccncn1)c1cnc(OCC(F)(F)F)c(C2CCCC2)c1 [Example 23, 5-cyclopentyl-N-pyrimidin-4-yl-6-(2,2,2-trifluoro-ethoxy)-nicotinamide] | >45 |
| 10 | −17 | N#Cc1ccc(NC(=O)c2cnc(OCC(F)(F)F)c(C3CCCCC3)c2)cc1 [Example 24, N-(4-cyano-phenyl)-5-cyclohexyl-6-(2,2,2-trifluoro-ethoxy)-nicotinamide] | >45 |
| 27 | 0 | N#Cc1ccc(NC(=O)c2cnc(OCC(F)(F)F)c(C3CCCC3)c2)cc1 [Example 25, N-(4-cyano-phenyl)-5-cyclopentyl-6-(2,2,2-trifluoro-ethoxy)-nicotinamide] | >45 |
| 24 | −2 | O=C(Nc1ccnnc1)c1cnc(OCC(F)(F)F)c(C2CCCC2)c1 [Example 26, 5-cyclopentyl-N-pyridazin-4-yl-6-(2,2,2-trifluoro-ethoxy)-nicotinamide] | >45 |
| 18 | 11 | O=C(Nc1cnccn1)c1cnc(OCC(F)(F)F)c(C2CCCCC2)c1 [Example 27, 5-cyclohexyl-N-pyrazin-2-yl-6-(2,2,2-trifluoro-ethoxy)-nicotinamide] | >45 |
| 12 | 2 | O=C(Nc1cnccn1)c1cnc(OCC(F)(F)F)c(C2CCCC2)c1 [Example 28, 5-cyclopentyl-N-pyrazin-2-yl-6-(2,2,2-trifluoro-ethoxy)-nicotinamide] | >45 |
